What was measured:
[1] = tested on: glutamate in blood cells and plasma (GPT, GOT, 2-ketoglutarate dehydrogenase, GDH); experiment: In-vitro glutamate levels and conversion in blood cell fraction and plasma; assay type: biochemical, rat; details: for blood cell (cellular) glutamate levels / plasma glutamate levels: incubation of blood with GDH co-factors in vitro
Description: (§1) Induction of rat blood glutamate metabolism and glutamate concentration determination—Fresh rat blood samples incubated at 37° C. were supplemented every 15 minutes or as noted with oxaloacetate and/or pyruvate (final concentration of 1 mM at pH 7.4).
(§2) At indicated time intervals, 150 μl aliquots were removed and centrifuged at 1,300×g for 7 minutes. Plasma volume (i.e., supernatant) was measured and was combined with identical volume of perchloric acid (PCA) to precipitate protein content. Precipitation was allowed to proceed for 10 minutes on ice and thereafter samples were centrifuged. Cell pellet (i.e., erythrocytes, lymphocytes and platelets) was lysed by osmotic shock following resuspension in double distilled water up to a final volume of 150 μl. A second step of protein precipitation was then performed by adding 150 μl of PCA [[…]]. Plasma and cell PCA-precipitated fractions were centrifuged at 16,000×g for 10 minutes and pellets were discarded.
Supernatant glutamate concentration was determined according to the fluorometric procedure of Graham and Aprison [(1996) Anal. Biochem. 15(3):487-97]. In brief: 20 μl aliquot of PCA precipitated fraction was added to 480 μl HG buffer containing 15 u of glutamate dehydrogenase in 0.2 mM NAD, 0.3 M glycine, 2.4% hydrazine hydrate adjusted to pH 6.8 with H2SO4 [1 N] and incubated at room temperature for 30-45 minutes. Fluorescence was measured at 460 nm following excitation at 350 nm. All measurements were performed alongside a glutamate standard curve at a glutamate concentration range of 0-6 μM. All glutamate measurements were performed in duplicates.
Results—Glutamate levels were therefore determined individually in blood cell fractions (closed symbols) and in plasma (open symbols), following repeated additions (arrows) of 1 mM pyruvate (squares), 1 mM oxaloacetate (triangles) or of a mixture of 1 mM pyruvate and 1 mM oxaloacetate (diamonds) (FIG. 2A). Glutamate determination was conducted as described in Example 1.

[2] = tested on: rat blood plasma glutamate (GOT, GPT); experiment: Glutamate conversion in rat blood plasma by pyruvate and oxaloacetate analogues; assay type: biochemical; details: for % of remaining Glutamate: rat blood plasma, 1 mM of each co-substrate
Description: A number of glutamate modifying enzymes were tested for their ability to enhance glutamate conversion in rat blood plasma. Table 1 below summarizes the results obtained with 1 mM of each co-substrate.

[3] = Blood concentrations of pyruvate and oxaloacetate during intravenous infusion; assay type: in vivo, rat; details: intravenous 50 μMoles/min each for 30 min
Description: Glutamate analyses of in-vivo treated blood samples were carried out according to the fluorometric procedure of Graham and Aprison [(1996) Anal. Biochem. 15(3):487-97]. Pyruvate concentration determination—Blood Pyruvate concentration was measured using the Sigma Diagnostics Pyruvate reagents according to manufacturer's instructions. In brief: the procedure utilizes lactate dehydrogenase which in the presence of excess NADH catalyzes almost complete conversion of pyruvate into lactate with a concomitant production of NAD. The reduction of absorbance at 340 nm due to the oxidation of NADH into NAD is the measure of the amount of pyruvate originally present.
(§3) Oxaloacetate concentration determination—Blood oxaloacetate concentration was measured using the same procedure as for pyruvate but using malate dehydrogenase which catalyses the conversion of oxaloacetate into malate along with the oxidation of NADH into NAD.
Results—The effect on glutamate levels via pyruvate and oxaloacetate administration through an intravenous catheter at a rate of 50 μMoles/minute for a duration of 30 minutes was determined. Blood concentrations of glutamate, pyruvate and oxaloacetate were monitored in parallel. […] However, as soon as the administration of pyruvate and oxaloacetate was stopped, their blood concentration decreased and the glutamate level increased concomitantly.

[4] = tested on: brain to blood glutamate efflux; experiment: Brain-to-blood [3H]Glu efflux after intracerebroventricular injection; details: first 10 minutes after injection in lateral ventricle, n=8
Description: Catheterization of the tail vein (for drug injections) and of the femoral vein (for blood aliquot withdrawals) was performed using PE10 polyethylene tubing linked to PE50 polyethylene tubing. […] A 27G steel cannula was implanted in the right lateral ventricle using the following stereotactic coordinates: 0.8 mm posterior to bregma; lateral 1.4 mm; depth: 4 mm from skull or 3.5 mm from dura. A [^3H] glutamate solution in phosphate buffered saline (PBS) was injected into the lateral ventricle through the implanted cannula using a Hamilton syringe (25 μl) connected to PE20 tube filled with solution. A total volume of 11 μl was injected within approximately 2 minutes.
For radioactivity determination, 50 μl blood samples were diluted in 500 μl H2O and added to 16 ml of scintillation fluid. Measured cpms were corrected for quenching as determined by comparing the measured cpms of a set volume of [^3H] glutamate added to water or to diluted blood. Body temperature was maintained with a lamp and rectal temperature was monitored. Rat pulse rate was monitored using a Periflux system 500 and a laser Doppler probe placed onto the skull.
Intravenous injections of pyruvate and oxaloacetate diluted in phosphate buffered saline (PBS) were carried out at a rate of 0.05 ml/minute for 30 minutes with a Pharmacia pump P-1.

[5] = Glutamate life time in blood after bolus intravenous injection of labelled glutamate; assay type: in vivo, rat
Description: Results—Glutamate normalization may be accomplished by estimating the rate of disappearance of [^14C] glutamate from the blood, by methodology detailed in the preceding example. Administration of a bolus intravenous injections of 11 μCi radio-labeled glutamate in the absence or presence of non-radioactive glutamate was conducted and the presence of radioactivity in blood was monitored over time (FIG. 19).

[6] = tested on: blood and plasma glutamate (GOT); experiment: Effect of diethyloxaloacetate on glutamate in rat blood and plasma in vitro; assay type: biochemical; details: 10 mM
Description: Thereafter, the effect of diethyloxaloacetate on Glutamate levels was assessed. Glutamate levels were determined in rat blood samples upon incubation in the absence or presence of 10 mM diethyloxaloacetate. […] FIG. 31 represents the amount of plasma glutamate converted probably into α-ketoglutarate following the activation of GOT as a function of time by the presence of 10 mM diethyloxaloacetate.

[7] = Conversion of diethyloxaloacetate into oxaloacetate in rat blood and tissue homogenates; assay type: in vitro ADME; details: 10 mM diethyloxaloacetate
Description: as §3
The use of an oxaloacetate prodrug, which following in vivo administration, is converted to oxaloacetate, may obviate this problem. Thus the commercially available oxaloacetate diethylester (FIG. 27B) was considered in this context. Conversion of oxaloacetate diethylester into oxaloacetate following incubation with tissue homogenates derived from rat liver, colon, ileum, jejunum and duodenum was investigated.

[8] = tested on: blood glutamate (blood resident GPT and GOT); experiment: In-vitro scavenging of glutamate in whole rat blood by activation of resident enzymes; assay type: biochemical; details: 37° C., 1 mM co-substrate and/or 2.5 u/ml GPT
Description: as §1, §2
Supernatant glutamate concentration was determined according to the fluorometric procedure of Graham and Aprison [(1996) Anal. Biochem. 15(3):487-97]. […] Fluorescence was measured at 460 nm following excitation at 350 nm. […]

[9] = biological target: T1, glutamate, 2-ketoglutarate (Escherichia coli, UniProt P00509); details: cited from earlier work
T1 sequence (P00509 whole entry, looked up): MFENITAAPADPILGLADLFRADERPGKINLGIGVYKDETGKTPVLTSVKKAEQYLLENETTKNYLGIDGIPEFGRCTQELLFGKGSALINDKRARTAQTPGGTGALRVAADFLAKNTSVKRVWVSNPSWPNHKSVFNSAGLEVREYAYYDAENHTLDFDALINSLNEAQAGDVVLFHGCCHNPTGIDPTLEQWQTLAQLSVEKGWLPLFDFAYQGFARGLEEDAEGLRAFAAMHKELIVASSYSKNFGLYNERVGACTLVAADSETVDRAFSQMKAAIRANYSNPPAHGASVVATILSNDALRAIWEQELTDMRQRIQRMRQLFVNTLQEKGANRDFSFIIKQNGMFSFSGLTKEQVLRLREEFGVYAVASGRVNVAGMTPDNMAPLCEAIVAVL

[10] = normal blood glutamate concentration of 209 μM
[11] = rat blood in vitro, 24 hours, 37° C.

Nc1ncnc2c1ncn2[C@@H]1O[C@H](COP(=O)(O)OP(=O)(O)O)[C@@H](O)[C@H]1O [ADP]
blood cell (cellular) glutamate levels [1]: did not significantly alter glutamate levels | plasma glutamate levels [1]: increased plasma glutamate levels

O=CC(=O)O [Glyoxalate]
% of remaining Glutamate [2]: 74%

CC(C)C[C@H](N)C(=O)O [Leucine]
blood cell (cellular) glutamate levels [1]: did not significantly alter glutamate levels | plasma glutamate levels [1]: increased plasma glutamate levels

NC(=O)c1ccc[n+]([C@@H]2O[C@H](COP(=O)([O-])OP(=O)(O)OC[C@H]3O[C@@H](n4cnc5c(N)ncnc54)[C@H](O)[C@@H]3O)[C@@H](O)[C@H]2O)c1 [NAD]
blood cell (cellular) glutamate levels [1]: decrease in blood cell glutamate levels | plasma glutamate levels [1]: increase in plasma glutamate levels

O=C(O)CC(=O)C(=O)O [Oxaloacetate]
blood concentration built up [3]: 0.45 mM

CC(=O)C(=O)O [Pyruvate]
blood concentration built up [3]: 0.45 mM

O=CCCC(=O)O [Succinic semialdehyde]
% of remaining Glutamate [2]: 78%

N[C@@H](CCC(=O)O)C(=O)O [[^3H] glutamate, glutamate]
rate of appearance of radioactivity in blood, of the amount input in the brain per minute [4]: 0.8%±0.1 | glutamate eliminated per minute ([5]; blood glutamate 3.4 mM): 69 nmoles glutamate/ml blood | elimination half-life in blood ([5]; blood glutamate 3.4 mM after intraperitoneal 2 mMoles of glutamate): 24.6 min | elimination rate constant ([5]; normal blood glutamate concentration): 0.035 min⁻¹ | elimination half-life in blood [5, 10]: 19.3 min | glutamate eliminated per minute [5, 10]: 5.4 nmoles of glutamate/ml blood

CCOC(=O)CC(=O)C(=O)OCC [diethyloxaloacetate]
glutamate blood levels [6, 11]: did not affect glutamate blood levels | plasma glutamate ([6]; rat blood plasma in vitro, following 9 hours incubation): significant increase in plasma glutamate | increase in basal oxaloacetate levels ([7]; liver and sections of rat gut mucosa, within 15 minutes): 400% | increase of blood oxaloacetate [7, 11]: 240%

Cc1ncc(COP(=O)(O)O)c(C=O)c1O [pyridoxal phosphate]
enhancement of pyruvate and oxaloacetate-mediated decrease in cellular or plasma glutamate ([1]; 15 μM pyridoxal phosphate): No significant effects

CCC(=O)C(=O)O [α-Ketobutyrate]
decrease in plasma glutamate levels ([2]; 0.5 mM, rat plasma): no effect | glutamate degradation as compared to basal glutamate levels ([2]; 2 mM, rat plasma): 40% | conversion of glutamate in the presence of oxaloacetate ([2]; in the presence of 0.25 mM oxaloacetate): enhanced conversion of glutamate | % of remaining Glutamate [2]: 97%

O=C(O)C(=O)CO [β-Hydroxypyruvate]
% of remaining Glutamate [2]: 74%

O=C(O)C(=O)Cc1ccccc1 [β-Phenylpyruvate]
% of remaining Glutamate [2]: 76%

α-Isocaproate
% of remaining Glutamate [2]: 83%

B1: GPT: glutamate pyruvate transaminase enzyme added at 2.5 u/ml (protein, UniProt P24298 2-496, looked up)
Alanine aminotransferase 1: ASSTGDRSQAVRHGLRAKVLTLDGMNPRVRRVEYAVRGPIVQRALELEQELRQGVKKPFTEVIRANIGDAQAMGQRPITFLRQVLALCVNPDLLSSPNFPDDAKKRAERILQACGGHSLGAYSVSSGIQLIREDVARYIERRDGGIPADPNNVFLSTGASDAIVTVLKLLVAGEGHTRTGVLIPIPQYPLYSATLAELGAVQVDYYLDEERAWALDVAELHRALGQARDHCRPRALCVINPGNPTGQVQTRECIEAVIRFAFEERLFLLADEVYQDNVYAAGSQFHSFKKVLMEMGPPYAGQQELASFHSTSKGYMGECGFRGGYVEVVNMDAAVQQQMLKLMSVRLCPPVPGQALLDLVVSPPAPTDPSFAQFQAEKQAVLAELAAKAKLTEQVFNEAPGISCNPVQGAMYSFPRVQLPPRAVERAQELGLAPDMFFCLRLLEETGICVVPGSGFGQREGTYHFRMTILPPLEKLRLLLEKLSRFHAKFTLEYS
blood glutamate levels [8]: significant increase in blood glutamate

B2: E. coli GOT: E. coli glutamate oxaloacetate transaminase, GenBank Accession No. D90731.1 (protein, UniProt P00509 1-396, looked up)
Aspartate aminotransferase: T1 sequence (P00509 whole entry, looked up)
affinity for 2-ketoglutarate [9]: about 0.2 mM | affinity for glutamate [9]: about 8 mM

From patent US7767204B2, “Method and composition for protecting neuronal tissue from damage induced by elevated glutamate levels” (Yeda Research And Development Co. Ltd., priority 2002, dated 2010)
